# From the supplement of paper PMC11208160
# Test: recombinant barcode read abundance after kanamycin selection (control-corrected) (log10(CPM+1)); higher = more efficient recombination; sequences stand for … in AGTGCAGAGAAAATCGGCCAGTTTTCTCTGCCTGCAGTCCGCATGCCGT…AGATTTATGCAGCGGACTGCCTTTCTCCCAAAGTGATAAACCGGACAGTATCATGGACCGGTTTTCCCGGTAATCCGTATTTGCAAGGTTGGTTTCACT; site = the 11-nt target
# Outline: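 Targets were screened in pooled form in E. coli against IS621 bridge RNA target-binding loops. Recombination efficiency is based on barcode counts at recombinant junctions in counts per million, averaged and corrected for the control. Numbers are shown as log10(CPM+1), with duplicate plates on chloramphenicol/ampicillin LB agar (control) or chloramphenicol/ampicillin/kanamycin with 0.1 mM IPTG.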
# 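Also: IS621 recombinase and bridge RNA in Escherichia coli cells.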
row,Sequence,recombinant barcode read abundance (log10)
1,ATTAAATCTTGGGTTCTAACCTGTTGCCT (site ATTAAATCTAG),0.0334
2,ATTAAATCTTGGGTTCTAACCTGTTGCCT (site ATTAATCCTAG),0.485
3,ATTAACCCTTGGGTTCTAACCTGTTGCCT (site AATAACCCTAG),0.0681
4,ATTAACCCTTGGGTTCTAACCTGTTGCCT (site ACTAACCCTAG),0.0136
5,ATTAACCCTTGGGTTCTAACCTGTTGCCT (site AGTAACCCTAG),0.085
6,ATTAACCCTTGGGTTCTAACCTGTTGCCT (site ATTAACCCTAG),1.21
7,ATTAACTCTTGGGTTCTAACCTGTTGCCT (site ATTAACTCTAG),0.944
8,ATTAACTCTTGGGTTCTAACCTGTTGCCT (site CGAGTGACTCT),0.0163
9,ATTAAGACTTGGGTTCTAACCTGTTGCCT (site ATAAAGACTAG),0.423
10,ATTAAGACTTGGGTTCTAACCTGTTGCCT (site ATCAAGACTAG),0.484
11,ATTAAGACTTGGGTTCTAACCTGTTGCCT (site ATGAAGACTAG),0.11
12,ATTAAGACTTGGGTTCTAACCTGTTGCCT (site ATTAAGACTAG),1.35
13,ATTCGAGCTTGGGTTCTAACCTGTTGCGC (site ATTCGAGCTGC),2.03
14,ATTCGAGCTTGGGTTCTAACCTGTTGCGC (site ATTCGGGCTAC),0.0665
15,ATTCGAGCTTGGGTTCTAACCTGTTGCGG (site ATTCGAGCTCC),1.97
16,ATTCGAGCTTGGGTTCTAACCTGTTGCGG (site GTTCGAGCTCC),0.0863
17,ATTGAGACTTGGGTTCTAACCTGTTGCTT (site ATTGAGACTAA),1.33
18,ATTGAGACTTGGGTTCTAACCTGTTGCTT (site GAGAGTCCTTG),0.0837
19,ATTGGGGCTTGGGTTCTAACCTGTTGCAG (site ATTAGGGCTCG),0.266
20,ATTGGGGCTTGGGTTCTAACCTGTTGCAG (site ATTGGGGCTCT),2.38
21,ATTTAAGCTTGGGTTCTAACCTGTTGCCT (site ATTTAAGCTAG),0.498
22,ATTTAAGCTTGGGTTCTAACCTGTTGCCT (site GAGCGGCCTCT),0.0137

row,Sequence,recombinant barcode read abundance (log10)
1,ATTTCTTCTTGGGTTCTAACCTGTTGCCT (site ATATCTTCTAG),0.113
2,ATTTCTTCTTGGGTTCTAACCTGTTGCCT (site ATTTCTTCTAG),0.0847
3,ATTTGCACTTGGGTTCTAACCTGTTGCCT (site ATTTGAACTAG),0.14
4,ATTTGCACTTGGGTTCTAACCTGTTGCCT (site ATTTGCACTAG),0.184
5,ATTTGCACTTGGGTTCTAACCTGTTGCCT (site ATTTGGACTAG),0.0348
6,ATTTGCACTTGGGTTCTAACCTGTTGCCT (site ATTTGTACTAG),0.0454
7,ATTTGTACTTGGGTTCTAACCTGTTGCCT (site ATTTGAACTAG),0.0288
8,ATTTGTACTTGGGTTCTAACCTGTTGCCT (site ATTTGCACTAG),0.0709
9,ATTTGTACTTGGGTTCTAACCTGTTGCCT (site ATTTGGACTAG),0
10,ATTTGTACTTGGGTTCTAACCTGTTGCCT (site ATTTGTACTAG),0.293
11,CAAACACCTTGGGTTCTAACCTGTTGCCT (site CAAACAACTAG),0.0738
12,CAAACACCTTGGGTTCTAACCTGTTGCCT (site CAAACACCTAG),1.46
13,CAAACACCTTGGGTTCTAACCTGTTGCCT (site CAAACAGCTAG),0.682
14,CAAACACCTTGGGTTCTAACCTGTTGCCT (site CAAACATCTAG),0.287
15,CAAACTACTTGGGTTCTAACCTGTTGCAC (site CAAACTACTGT),0.556
16,CAAACTACTTGGGTTCTAACCTGTTGCAC (site CAAACTACTTA),0.0177
17,CAAAGGGCTTGGGTTCTAACCTGTTGCAG (site CAAAAGGCTCT),1.17
18,CAAAGGGCTTGGGTTCTAACCTGTTGCAG (site CAAAGGGCTCT),2.29
19,CAAAGTCCTTGGGTTCTAACCTGTTGCCT (site CAAAGTCCTAA),0.013
20,CAAAGTCCTTGGGTTCTAACCTGTTGCCT (site CAAAGTCCTAC),0.0449
21,CAAAGTCCTTGGGTTCTAACCTGTTGCCT (site CAAAGTCCTAG),1.12
22,CAAAGTCCTTGGGTTCTAACCTGTTGCCT (site CAAAGTCCTAT),0.0828

row,Sequence,recombinant barcode read abundance (log10)
1,CAAAGTCCTTGGGTTCTAACCTGTTGCTT (site CAAAGTCCTAA),0.437
2,CAAAGTCCTTGGGTTCTAACCTGTTGCTT (site CAAAGTCCTAC),0.174
3,CAAAGTCCTTGGGTTCTAACCTGTTGCTT (site CAAAGTCCTAG),0.152
4,CAAAGTCCTTGGGTTCTAACCTGTTGCTT (site CAAAGTCCTAT),0.429
5,CAACCGGCTTGGGTTCTAACCTGTTGCCT (site CAACCGACTAG),0.0354
6,CAACCGGCTTGGGTTCTAACCTGTTGCCT (site CAACCGCCTAG),0.255
7,CAACCGGCTTGGGTTCTAACCTGTTGCCT (site CAACCGGCTAG),0.986
8,CAACCGGCTTGGGTTCTAACCTGTTGCCT (site CAACCGTCTAG),0.111
9,CAAGGGCCTTGGGTTCTAACCTGTTGCCT (site CAAAGGCCTAG),0.423
10,CAAGGGCCTTGGGTTCTAACCTGTTGCCT (site CAACGGCCTAG),0.0504
11,CAAGGGCCTTGGGTTCTAACCTGTTGCCT (site CAAGGGCCTAG),0.701
12,CAAGGGCCTTGGGTTCTAACCTGTTGCCT (site CAATGGCCTAG),0.375
13,CAAGTAGCTTGGGTTCTAACCTGTTGCCT (site CAAGTAGCTAG),0.591
14,CAAGTAGCTTGGGTTCTAACCTGTTGCCT (site CAAGTCGCTAG),0.123
15,CAAGTAGCTTGGGTTCTAACCTGTTGCCT (site CAAGTGGCTAG),0.183
16,CAAGTAGCTTGGGTTCTAACCTGTTGCCT (site CAAGTTGCTAG),0.0368
17,CAATAGACTTGGGTTCTAACCTGTTGCCT (site CAATAGACTAG),1.19
18,CAATAGACTTGGGTTCTAACCTGTTGCCT (site TGCACCTCTTA),0.0564
19,CAATCACCTTGGGTTCTAACCTGTTGCTT (site CAAACACCTAA),0.109
20,CAATCACCTTGGGTTCTAACCTGTTGCTT (site CAACCACCTAA),0.461
21,CAATCACCTTGGGTTCTAACCTGTTGCTT (site CAAGCACCTAA),0.027
22,CAATCACCTTGGGTTCTAACCTGTTGCTT (site CAATCACCTAA),0.794

row,Sequence,recombinant barcode read abundance (log10)
1,CAATCCTCTTGGGTTCTAACCTGTTGCTT (site CAATCCTCTAA),0.664
2,CAATCCTCTTGGGTTCTAACCTGTTGCTT (site CCATCCTCTAA),0
3,CAATCGTCTTGGGTTCTAACCTGTTGCGG (site CAATCGTCTCC),1.68
4,CAATCGTCTTGGGTTCTAACCTGTTGCGG (site CAGCCGTCTCC),0.166
5,CAATGGTCTTGGGTTCTAACCTGTTGCAT (site CAATGGTCTAA),0.409
6,CAATGGTCTTGGGTTCTAACCTGTTGCAT (site CAATGGTCTAC),0.476
7,CAATGGTCTTGGGTTCTAACCTGTTGCAT (site CAATGGTCTAG),0.54
8,CAATGGTCTTGGGTTCTAACCTGTTGCAT (site CAATGGTCTAT),2.71
9,CAATTGTCTTGGGTTCTAACCTGTTGCGT (site CAATTGTCTAC),3.47
10,CAATTGTCTTGGGTTCTAACCTGTTGCGT (site TAATTGTCTAC),0.151
11,CACAAGTCTTGGGTTCTAACCTGTTGCTT (site CACAAGTCTAA),0.474
12,CACAAGTCTTGGGTTCTAACCTGTTGCTT (site CGCACGTCTAA),0.0654
13,CACAATACTTGGGTTCTAACCTGTTGCCT (site CACAATACTAG),1.03
14,CACAATACTTGGGTTCTAACCTGTTGCCT (site GCATGACCTCT),0.00751
15,CACACAGCTTGGGTTCTAACCTGTTGCCT (site CACAAAGCTAG),0.082
16,CACACAGCTTGGGTTCTAACCTGTTGCCT (site CACACAGCTAG),0.559
17,CACAGGGCTTGGGTTCTAACCTGTTGCGG (site CACAGGGCTCC),2.39
18,CACAGGGCTTGGGTTCTAACCTGTTGCGG (site CACATGGCTCG),0.344
19,CACATCTCTTGGGTTCTAACCTGTTGCCT (site CACATATCTAT),0.0495
20,CACATCTCTTGGGTTCTAACCTGTTGCCT (site CACATCTCTAG),1.38
